From ChEMBL document CHEMBL3580578, “Optimization of 5-(2,6-dichlorophenyl)-3-hydroxy-2-mercaptocyclohex-2-enones as potent inhibitors of human lactate dehydrogenase” (Bioorg Med Chem Lett, 2014) come the findings set out here.

Converted amounts (≈) assume the structure as drawn.

For data set [1], the target named is T1, Malate dehydrogenase, cytoplasmic (Homo sapiens, UniProt P40925).
T1 sequence (P40925 whole entry): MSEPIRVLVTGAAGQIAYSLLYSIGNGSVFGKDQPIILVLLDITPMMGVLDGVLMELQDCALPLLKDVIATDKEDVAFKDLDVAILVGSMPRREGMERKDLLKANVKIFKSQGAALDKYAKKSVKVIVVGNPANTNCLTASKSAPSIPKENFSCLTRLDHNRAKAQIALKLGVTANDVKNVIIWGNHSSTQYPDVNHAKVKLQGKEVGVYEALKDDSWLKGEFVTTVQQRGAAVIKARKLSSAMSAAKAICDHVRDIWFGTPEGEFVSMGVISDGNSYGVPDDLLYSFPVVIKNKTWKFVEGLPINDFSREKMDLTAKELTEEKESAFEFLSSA
Put plainly: Inhibition of malate dehydrogenase 1 (unknown origin).

Data set [2] deals with L-lactate dehydrogenase A chain (Homo sapiens, UniProt P00338). Put plainly: Inhibition of human LDH-A by biochemical assay.
The target of data set [3] is T2, Malate dehydrogenase, mitochondrial (Homo sapiens, UniProt P40926).
T2 sequence (P40926 whole entry): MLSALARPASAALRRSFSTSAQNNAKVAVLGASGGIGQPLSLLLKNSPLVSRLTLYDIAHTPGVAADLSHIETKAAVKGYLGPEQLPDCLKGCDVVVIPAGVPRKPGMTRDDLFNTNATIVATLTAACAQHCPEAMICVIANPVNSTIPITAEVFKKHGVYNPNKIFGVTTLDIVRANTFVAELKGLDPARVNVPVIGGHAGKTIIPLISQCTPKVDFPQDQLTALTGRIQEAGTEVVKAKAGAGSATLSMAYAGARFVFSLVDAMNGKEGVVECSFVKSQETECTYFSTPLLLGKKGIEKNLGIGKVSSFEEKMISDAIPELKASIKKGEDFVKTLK
Put plainly: Inhibition of malate dehydrogenase 2 (unknown origin).

Data set [4] is described as follows: Kinetic solubility of the compound in PBS buffer at pH 7.4.
The target of data set [5] is L-lactate dehydrogenase B chain (Homo sapiens, UniProt P07195).
Description: Inhibition of LDH-B (unknown origin)
Data set [6] is described as follows: Plasma protein binding in human. Format: ADME, cell-free. Particulars: read-out: PPB.
Data set [7] can be described thus: Apparent permeability from apical to basolateral side in MDCK cells. Conditions: dog. Format: ADME, cell-based, Canis lupus familiaris.
The nature of data set [8]: Stability in mouse plasma assessed as parent compound remaining at 37 degC after 1 hr. Particulars: read-out: Stability. Format: ADME, cell-free.

Chain of L-lactate dehydrogenase B chain (P07195 whole entry): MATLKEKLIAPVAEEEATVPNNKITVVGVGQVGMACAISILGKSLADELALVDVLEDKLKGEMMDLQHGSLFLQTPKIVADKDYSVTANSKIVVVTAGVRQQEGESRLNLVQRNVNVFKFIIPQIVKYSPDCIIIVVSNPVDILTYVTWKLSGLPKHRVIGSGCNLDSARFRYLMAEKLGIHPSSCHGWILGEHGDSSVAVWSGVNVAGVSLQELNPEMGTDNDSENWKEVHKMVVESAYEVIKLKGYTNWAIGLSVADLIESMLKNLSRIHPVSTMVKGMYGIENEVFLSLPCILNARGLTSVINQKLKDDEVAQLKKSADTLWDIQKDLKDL

As a reminder, the IC50 is the concentration needed to halve the response being measured. Read a low IC50 as inhibition by little substance. On to `O=C1CC(c2c(Cl)ccc(N3CCN(C4CC4)CC3)c2Cl)CC(O)=C1Sc1ccccc1Cl` (configuration not stated), for which the IC50 is at least 10 µM in data set [1], 0.23 µM in data set [2] and at least 10 µM in data set [3].

`CC(C)Oc1ccc(Cl)c(C2CC(=O)C(Sc3ccccc3Cl)=C(O)C2)c1Cl` (configuration not stated): the results for the IC50 in data set [1], in data set [2] and in data set [3] were at least 10 µM, 0.09 µM and at least 10 µM, respectively.

As for `O=C1CC(c2c(Cl)ccc(-c3ccncc3)c2Cl)CC(O)=C1Sc1ccccc1Cl` (configuration not stated), the IC50 in data set [1] is at least 10 µM; in data set [2] it was 0.085 µM; in data set [3], at least 10 µM.

Take `O=C1CC(c2c(Cl)ccc(N3CCN(C4COC4)CC3)c2Cl)CC(O)=C1Sc1ccccc1Cl` (configuration not stated): the IC50 is at least 10 µM in data set [1], 0.37 µM in data set [2] and at least 10 µM in data set [3].

Turning to `CC(=O)N1CCN(c2ccc(Cl)c(C3CC(=O)C(Sc4ccccc4Cl)=C(O)C3)c2Cl)CC1` (configuration not stated), the IC50 in data set [1] was at least 10 µM; in data set [2] it was 0.1 µM; in data set [3], at least 10 µM.

With `O=C(O)Cc1ccc(Cl)c(SC2=C(O)CC(c3c(Cl)cccc3Cl)CC2=O)c1` (configuration not stated), the IC50 in data set [1] was at least 10 µM; in data set [2], 3.5 µM; in data set [3], at least 10 µM.

For the compound `O=C1CC(c2c(Cl)cccc2Cl)CC(O)=C1Sc1cc(O)ccc1Cl` (configuration not stated), the values for the IC50 in data set [1], in data set [2] and in data set [3] were at least 10 µM, 0.12 µM and at least 10 µM, respectively.

For `CNC(=O)Cc1ccc(Cl)c(SC2=C(O)CC(c3c(Cl)cccc3Cl)CC2=O)c1` (configuration not stated), the values for the IC50 in data set [1], in data set [2] and in data set [3] were at least 10 µM, 1.8 µM and at least 10 µM, respectively.

Broadly, the solubility (kinetic) is the concentration staying in solution when a stock, usually in DMSO, is diluted into the medium. By Papp A→B is commonly meant how fast a substance crosses the layer from the apical side. Compound `CC(C)Oc1ccc(Cl)c(C2CC(=O)C(Sc3cc(O)ccc3C#N)=C(O)C2)c1Cl` (configuration not stated) displayed a kinetic solubility in data set [4] of 50 µM (≈ 23.2 µg/mL). For the same compound, the IC50 was 0.14 µM in data set [5], at least 10 µM in data set [1], 0.015 µM in data set [2] and at least 10 µM in data set [3]. In addition, in data set [6], the fraction unbound is under 0.001. In data set [7], the Papp A→B amounted to 1.1 ×10⁻⁶ cm/s.

`CCOC(=O)Cc1ccc(Cl)c(SC2=C(O)CC(c3c(Cl)cccc3Cl)CC2=O)c1` (configuration not stated): the results for the IC50 in data set [1], in data set [2] and in data set [3] were at least 10 µM, 0.13 µM and at least 10 µM, respectively.

For the compound `O=C1CC(c2c(Cl)ccc(N3CCOCC3)c2Cl)CC(O)=C1Sc1ccccc1Cl` (configuration not stated), the values for the half-inhibitory concentration (IC50) in data set [1], in data set [2] and in data set [3] were at least 10 µM, 0.24 µM and at least 10 µM, respectively.

As to `COc1ccc(Cl)c(SC2=C(O)CC(c3c(Cl)ccc(OC(C)C)c3Cl)CC2=O)c1` (configuration not stated), the figures for the half-maximal inhibitory concentration (IC50) in data set [1], in data set [2] and in data set [3] were at least 10 µM, 0.025 µM and at least 10 µM, respectively.

Consider `O=C(Cc1ccc(Cl)c(SC2=C(O)CC(c3c(Cl)cccc3Cl)CC2=O)c1)NCCO` (configuration not stated), for which the IC50 was at least 10 µM in data set [1], 0.3 µM in data set [2] and at least 10 µM in data set [3].

On to `CC(C)OC(=O)Cc1ccc(Cl)c(SC2=C(O)CC(c3c(Cl)cccc3Cl)CC2=O)c1` (configuration not stated), for which the IC50 was at least 10 µM in data set [1], 0.12 µM in data set [2] and at least 10 µM in data set [3].

Turning to `O=C1CC(c2c(Cl)ccc(-c3ccccc3Cl)c2Cl)CC(O)=C1Sc1ccccc1Cl` (configuration not stated), the values for the IC50 in data set [1], in data set [2] and in data set [3] were at least 10 µM, 0.06 µM and at least 10 µM, respectively.

`COc1ccc(Cl)c(SC2=C(O)CC(c3c(Cl)ccc(NC4CCOCC4)c3Cl)CC2=O)c1` (configuration not stated) had a kinetic solubility in data set [4] of 49 µM (≈ 25.9 µg/mL). Further, the fraction unbound in data set [6] was under 0.001. Besides, the IC50 in data set [1] was at least 10 µM; in data set [2], 0.03 µM; in data set [3], at least 10 µM. Moreover, in data set [7], the Papp A→B was 14 ×10⁻⁶ cm/s.

`O=C1CC(c2c(Cl)ccc(N3CCNCC3)c2Cl)CC(O)=C1Sc1ccccc1Cl` (configuration not stated): the concentration for half-maximal inhibition (IC50) in data set [1] was at least 10 µM; in data set [2], 0.17 µM; in data set [3], at least 10 µM.

In the case of `CCOC(=O)Cc1ccc(Cl)c(SC2=C(O)CC(c3c(Cl)ccc(-c4ccccc4)c3Cl)CC2=O)c1` (configuration not stated), the IC50 in data set [1] is at least 10 µM; in data set [2], 0.03 µM; in data set [3], at least 10 µM.

For `COc1ccc(Cl)c(SC2=C(O)CC(c3c(Cl)cccc3Cl)CC2=O)c1` (configuration not stated), the values for the IC50 in data set [1], in data set [2] and in data set [3] were at least 10 µM, 0.37 µM and at least 10 µM, respectively.

`C[C@@H](OC(=O)Cc1ccc(Cl)c(SC2=C(O)CC(c3c(Cl)cccc3Cl)CC2=O)c1)c1ccccc1` (some centres not stated) registered a kinetic solubility in data set [4] of 61 µM (≈ 34.3 µg/mL). Besides, the IC50 in data set [1] is at least 10 µM; in data set [2], 0.006 µM; in data set [3], at least 10 µM. In addition, the Papp A→B in data set [7] stood at 10.6 ×10⁻⁶ cm/s. Besides, in data set [8], the remaining at 1 h turned out to be 72%.

Consider `COc1ccc(C#N)c(SC2=C(O)CC(c3c(Cl)ccc(OC(C)C)c3Cl)CC2=O)c1` (configuration not stated), for which the IC50 in data set [5] is 2.4 µM; in data set [1], at least 10 µM; in data set [2] it was 0.46 µM; in data set [3], at least 10 µM.

Regarding `CNc1ccc(Cl)c(SC2=C(O)CC(c3c(Cl)cccc3Cl)CC2=O)c1` (configuration not stated), the IC50 in data set [1] is at least 10 µM; in data set [2], 0.17 µM; in data set [3] it was at least 10 µM.

With `O=C1CC(c2c(Cl)cccc2Cl)CC(O)=C1Sc1ccccc1Cl` (configuration not stated), the IC50 in data set [1] and in data set [3] was at least 10 µM throughout.

For `Nc1ccc(Cl)c(SC2=C(O)CC(c3c(Cl)cccc3Cl)CC2=O)c1` (configuration not stated), the IC50 in data set [1] is at least 10 µM; in data set [2], 0.64 µM; in data set [3], at least 10 µM.

For `CN(C)C(=O)Cc1ccc(Cl)c(SC2=C(O)CC(c3c(Cl)cccc3Cl)CC2=O)c1` (configuration not stated), the IC50 in data set [1] is at least 10 µM; in data set [2], 10 µM; in data set [3], at least 10 µM.

As to `C[C@H](OC(=O)Cc1ccc(Cl)c(SC2=C(O)CC(c3c(Cl)cccc3Cl)CC2=O)c1)c1ccccc1` (some centres not stated), the IC50 is at least 10 µM in data set [1], 0.09 µM in data set [2] and at least 10 µM in data set [3].

On to `O=C1CC(c2c(Cl)cc(N3CCOCC3)cc2Cl)CC(O)=C1Sc1ccccc1Cl` (configuration not stated), for which the IC50 is at least 10 µM in data set [1], 2.6 µM in data set [2] and at least 10 µM in data set [3].

For the compound `COC(=O)Cc1ccc(Cl)c(SC2=C(O)CC(c3c(Cl)cccc3Cl)CC2=O)c1` (configuration not stated), the results for the IC50 in data set [1], in data set [2] and in data set [3] were at least 10 µM, 0.04 µM and at least 10 µM, respectively.

For the compound `O=C1CC(c2c(Cl)ccc(-c3cccnc3)c2Cl)CC(O)=C1Sc1ccccc1Cl` (configuration not stated), the half-maximal inhibitory concentration (IC50) in data set [1] is at least 10 µM; in data set [2], 0.108 µM; in data set [3], at least 10 µM.

Regarding `O=C1CC(c2c(Cl)ccc(-c3ccccc3)c2Cl)CC(O)=C1Sc1ccccc1Cl` (configuration not stated), the figures for the IC50 in data set [1], in data set [2] and in data set [3] were at least 10 µM, 0.1 µM and at least 10 µM, respectively.

Take `O=C1CC(c2c(Cl)ccc(NC3CCOCC3)c2Cl)CC(O)=C1Sc1ccccc1Cl` (configuration not stated): the values for the IC50 in data set [1], in data set [2] and in data set [3] were at least 10 µM, 0.06 µM and at least 10 µM, respectively.

For `O=C1CC(c2c(Cl)ccc(-c3cncnc3)c2Cl)CC(O)=C1Sc1ccccc1Cl` (configuration not stated), the IC50 in data set [1] is at least 10 µM; in data set [2], 1.1 µM; in data set [3], at least 10 µM.

For the compound `COc1ccc(Cl)c(SC2=C(O)CC(c3c(Cl)ccc(-c4ccncc4)c3Cl)CC2=O)c1` (configuration not stated), the IC50 is at least 10 µM in data set [1], 0.035 µM in data set [2] and at least 10 µM in data set [3].

Consider `CC(C)Oc1ccc(Cl)c(C2CC(=O)C(Sc3cc(O)ccc3Cl)=C(O)C2)c1Cl` (configuration not stated), for which the results for the IC50 in data set [1], in data set [2] and in data set [3] were at least 10 µM, 0.03 µM and at least 10 µM, respectively.
